Test results as given in patent US8344160B2, “Pyrrolone melanin concentrating hormone receptor-1 antagonists” (Bristol-Myers Squibb Company, priority 2008, dated 2013).
Counter-ions that a name gives are not always drawn.

Assays:
[1] = target: T1, mutated (E4Q, A5T) hMCHR1 receptor (Homo sapiens, UniProt Q99705, A5T/E4Q); assay: Radioligand binding assay for assessment of MCHR1 activity; conditions: membranes from stably transfected HEK-293 cells; competition with [Phe13,[125I]Tyr19]-MCH
T1 construct: expressed in transfected cells; host or cells: HEK-293 (stably transfected), membrane preparation
T1 sequence (Q99705 whole entry E4Q/A5T): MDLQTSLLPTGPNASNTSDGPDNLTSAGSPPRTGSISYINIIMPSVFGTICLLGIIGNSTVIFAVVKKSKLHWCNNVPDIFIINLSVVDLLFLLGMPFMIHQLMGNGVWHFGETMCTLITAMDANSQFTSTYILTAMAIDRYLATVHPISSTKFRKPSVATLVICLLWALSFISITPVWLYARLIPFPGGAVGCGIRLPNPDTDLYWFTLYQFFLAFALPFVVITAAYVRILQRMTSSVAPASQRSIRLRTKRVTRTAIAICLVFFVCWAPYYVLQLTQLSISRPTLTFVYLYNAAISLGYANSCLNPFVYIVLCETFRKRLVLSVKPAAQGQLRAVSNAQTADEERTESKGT
Protocol: Radioligand Binding Assay for Assessment of MCHR1 Activity
Membranes from stably transfected HEK-293 cells expressing a mutated (E4Q, A5T) hMCHR1 receptor were prepared by dounce homogenization and differential centrifugation. Binding experiments were carried out with 0.5-1.0 ug of membrane protein incubated in a total of 0.2 ml in 25 mM HEPES (pH 7.4) with 10 mM MgCl2, 2 mM EGTA, and 0.1% BSA (Binding Buffer) for 90 min. For competition binding assays, reactions were carried out in the presence of with 0.06-0.1 nM [Phe^13, [^125I]Tyr^19]-MCH and increasing concentrations of unlabeled test molecules. Reactions were terminated by rapid vacuum filtration over 96 well-GFC UNIFILTER® plates pre-coated with 0.075 ml binding buffer containing 1% BSA, and washed 3 times with 0.4 ml of Phospho-buffered Saline (pH 7.4) containing 0.01% TX-100. Filters were dried, 0.05 ml microscint 20 was added to each well and radioactivity was subsequently quantified by scintillation counting on a TOPCOUNT® microplate scintillation counter (Packard). Inhibitory constants were determined by nonlinear least squares analysis using a four parameter logistic equation.

[2] = Assessment of in vivo MCHR activity: body weight of rats with a choice of chow and high fat/high sugar diet; set-up: species or system rat; conditions: male Sprague Dawley rats, 30 mg/kg p.o. daily day 0 through day 4, dosed as prodrug (Examples 57, 68, 66)
Protocol: Male SPRAGUE DAWLEY® (CD, Charles River Breeding Laboratory) rats weighing approximately 240 grams were place in individual plastic cages with ALPHADRI® bedding. The room was maintained at 72° F. and 50% humidity, and a 12/12 light dark cycle with lights out at 1600 hours. The rats were conditioned for 5 days prior to the start of the study to having a choice of foods. A normal chow (HARLAN TEKLAD®, 2018) that contains 18% protein, 5% fat and 73% carbohydrate and a high fat high sugar diet (Research Diets (D2327)) that contains 20% protein, 40% fat and 40% carbohydrate where the carbohydrate is entirely sucrose and the fat is soybean and coconut oil. […] Body weight and consumption of both kinds of food as well as water intake were measured daily. Water was available ad lib throughout the study. Food consumption is presented as daily caloric consumption which is the sum of grams of chow multiplied by the Kcal per gram (3.5) plus grams of high fat high sugar multiplied by Kcal per gram (4.59).
Baseline body weight was measured prior to drug treatment on day 0 of the study. Baseline food consumption was the average of the 3 days prior to the first drug treatment. Drug was administered daily p.o. at 2.0 ml/kg at 1500 hours beginning on day 0 and continuing daily through day 4 as a suspension in 0.5% methyl cellulose, 0.1% Tween 80 in water at 3.0, 10 and 30 mg/kg p.o. All data were evaluated using ANOVA and Fishers PLSD statistics.

Compound	Ki [1] [nM]	Weight Reduction versus Vehicle [2] [%]
COc1cc(N2Cc3cc(-c4ccc(Cl)cc4)sc3C2=O)ccc1O [Example 6]	30	–
COc1cc(N2Cc3cc(-c4ccc(Cl)cc4)sc3C2=O)ccc1OC[C@H](O)C1CC1 [Example 2]	2.5	–
COc1cc(N2Cc3cc(-c4ccccn4)sc3C2=O)ccc1OCC(C)(C)O [Example 49, 5-(4-(2-Hydroxy-2-methylpropoxy)-3-methoxyphenyl)-2-(pyridin-2-yl)-4H-thieno[2,3-c]pyrrol-6(5H)-one, trifluoroacetic acid salt]	107	–
COc1cc(N2Cc3cc(-c4ccc(Cl)cc4)sc3C2=O)ccc1OCCN1CCCC1 [Example 3]	0.2	–
COc1cc(N2Cc3cc(-c4ncc(Cl)cn4)sc3C2=O)ccc1N1CCC(O)CC1 [Example 39]	33.6	–
5-(4-(2-Hydroxy-2-methylpropoxy)-3-methoxyphenyl)-2-(6-methoxypyridin-3-yl)-4H-thieno[3,2-c]pyrrol-6(5H)-one, trifluoroacetic acid salt [Example 41]	800	–
COc1cc(N2Cc3cc(-c4ccc(Cl)cc4)sc3C2=O)ccc1OC[C@H](O)CS(C)(=O)=O [Example 15]	0.6	–
COc1cc(N2Cc3cc(-c4ccc(Cl)nc4)sc3C2=O)ccc1OCC(C)(C)O [Example 44]	21.6	–
COc1cc(N2Cc3cc(-c4ncc(Cl)cn4)sc3C2=O)ccc1OCC(C)(C)OC(=O)CN [Example 68]	17.6	–
COc1cc(N2Cc3cc(-c4ccc(Cl)cn4)sc3C2=O)ccc1OC[C@H](O)CS(C)(=O)=O [Example 31]	–	3.2

The remaining compounds from weak to strong by Ki [1], led by results:

Ki [1] [nM]	Compound	Weight Reduction versus Vehicle [2] [%]
1290	COc1cc(N2Cc3cc(-c4ccncc4)sc3C2=O)ccc1OCC(C)(C)O [Example 43]	–
248	COc1cc(N2Cc3nc(-c4ccc(Cl)cc4)oc3C2=O)ccc1OCC(C)(C)O [Example 53, 2-(4-Chlorophenyl)-5-(4-(2-hydroxy-2-methylpropoxy)-3-methoxyphenyl)-4H-pyrrolo[3,4-d]oxazol-6(5H)-one]	–
68	COc1cc(N2Cc3nc(-c4ccc(Cl)cc4)sc3C2=O)ccc1OCC(C)(C)O [Example 52, 2-(4-Chlorophenyl)-5-(4-(2-hydroxy-2-methylpropoxy)-3-methoxyphenyl)-4H-pyrrolo[3,4-d]thiazol-6(5H)-one]	–
17	COc1cc(N2Cc3cc(-c4ncc(Cl)cn4)sc3C2=O)ccc1OCC(C)(C)O [Example 33]	4.8
13.3	COc1cc(N2Cc3cc(-c4ccc(Cl)cc4)oc3C2=O)ccc1OCC(C)(C)O [Example 54, 2-(4-Chlorophenyl)-5-(4-(2-hydroxy-2-methylpropoxy)-3-methoxyphenyl)-4H-furo[3,2-c]pyrrol-6(5H)-one]	–
2.5	COc1cc(N2Cc3cc(-c4ccc(Cl)cn4)sc3C2=O)ccc1OCC(O)C(F)(F)F (stereo not drawn) [Example 27]	–
1.9	COc1cc(N2Cc3cc(-c4ccc(Cl)cc4)sc3C2=O)ccc1OCC(C)(C)O [Example 1, 2-(4-Chlorophenyl)-5-(4-(2-hydroxy-2-methylpropoxy)-3-methoxyphenyl)-4H-thieno[3,2-c]pyrrol-6(5H)-one]	3.9
0.3	CN[C@H]1CCN(c2ccc(N3Cc4cc(-c5ccc(Cl)cc5)sc4C3=O)cn2)C1 [Example 10]	–
0.2	CN(C)[C@@H]1CCN(c2ccc(N3Cc4cc(-c5ccc(Cl)cc5)sc4C3=O)cn2)C1 [Example 21, (R)-2-(4-Chlorophenyl)-5-(6-(3-(dimethylamino)pyrrolidin-1-yl)pyridin-3-yl)-4H-thieno[3,2-c]pyrrol-6(5H)-one]	–
